How the values were obtained:
MGC-803 cells = test: CCK-8 proliferation assay, MGC-803; type: cell-based, human; conditions: for IC50: 48 h, CCK-8, mean ± SD
Description: (§1) All synthesized β-lactam-azide derivatives were evaluated for their antiproliferative activity against three cancer cell lines (MGC-803, MCF-7, A549) using CCK-8 proliferation assay. The well-known anticancer drug CA-4P was used as a control[36],[37].
(§2) MGC-803 cell line was obtained from the Chinese Academy of Sciences (Shanghai, China). MCF-7 and A549 were from the National Cell Center, China. MGC-803 cells were cultured in DMEM culture medium (DMEM, Biological Industries, Kibbutz Beit Haemek, Israel). A549 and MCF-7 cells were cultured in 1640 medium (1640, Biological Industries, Kibbutz Beit Haemek, Israel). All medium were supplemented with 10% fetal bovine serum, 100 U/ml penicillin (North China Pharmaceutical group Co.), and 100 µg/ml streptomycin (North China Pharmaceutical group Co.). All cells were cultured at 37 °C in a humidified incubator containing 5% CO2.
(§3) Synthesized analogues used in the study were dissolved in 100% cell culture grade DMSO and the final concentration of DMSO as <0.1% for testing on cancer cell lines. Cytotoxicity assays were performed on the human gastric carcinoma cell line MGC-803, the human mammary carcinoma cell line MCF-7, the human lung carcinoma cell line A549. Cells (3500–5000/well) were seeded into 96-well plates in 100 µL of culture medium. The cells were treated in triplicate with a gradient concentration of testing compounds and incubated at 37 °C, 5% CO2 for 48 h. For all cell lines, CCK-8 assay was performed to measure cytotoxic effects. The absorbance was measured using a microplate reader (BioTek Instrument, Inc. Vermont, USA) with a test wavelength of 450 nm. The absorbance levels were corrected against untreated control absorbance values. All experiments were performed in triplicate and SPSS17.0 was used for data analysis to obtain IC50 values.

MCF-7 cells = test: CCK-8 proliferation assay, MCF-7; type: cell-based, human; conditions: 48 h, CCK-8, mean ± SD
Description: as §1, §2, §3

A549 cells = test: CCK-8 proliferation assay, A549; type: cell-based, human; conditions: 48 h, CCK-8, mean ± SD
Description: as §1, §2, §3

MGC-803 xenograft = MGC-803 xenograft model in nude mice; type: in vivo, BALB/c nude mice; conditions: 100 mg/kg, intragastric daily
Description: To evaluate the potential antitumor effects of 28 in vivo, a MGC-803 xenograft model were established in nude mice by subcutaneously injecting MGC-803 cells at its logarithmic phase into the right flank of mice[56]. Tumor bearing mice were then randomly assigned to five groups (control, 100 mg/kg CA-4P, 25, 50, 100 mg/kg 28) with 10 mice per group. Then, the mice were gavaged with saline (control), CA-4P and different concentrations of 28 in saline solution daily. […] At the end of the observation period, mean tumor volumes of control, CA-4P, 25, 50, and 100 mg/kg 28 groups were 1665.98 ± 568.36 mm^3, 642.61 ± 449.92 mm^3, 788.18 ± 435.92 mm^3, 1125.93 ± 668.25 mm^3 and 1273.88 ± 513.69 mm^3, respectively. […] The antitumor activity of 28 in vivo was similar to that of CA-4P.
Animals were treated according to protocols established by the ethics committee of Zhengzhou University and the in vivo experiments were carried out in accordance with the approved guidelines and approved by the ethics committee of Zhengzhou University. BALB/c nude mice (18 g, aged 4–5 weeks) were purchased from Human SJA Laboratory Animal Co. Ltd. (Hunan, China). Mice were subcutaneously implanted with MGC-803 cells (5 × 10^6 cells per mouse) on the right flank of nude mice. Once tumor volumes reached to approximately 100 mm^3, the mice were randomly divided into corresponding saline, CA-4P (100 mg/kg), 28 (100 mg/kg), 28 (50 mg/kg) and 28 (25 mg/kg) treatment groups (n = 10 mice for each group). The treatment groups received intragastric administration of 28 and CA-4P per day for a period of 21 days. Then, the mice were euthanized and tumors isolated and weighed. Their body weights were measured and tumor sizes determined by vernier caliper measurement every other day.

| Compound | IC50 (MGC-803 cells; Homo sapiens, MGC-803) | IC50 (MCF-7 cells; Homo sapiens, MCF7) | IC50 (A549 cells; Homo sapiens, A549) | also measured |
| --- | --- | --- | --- | --- |
| COc1ccc(N2C(=O)[C@H](c3ccccc3)[C@H]2c2ccc(N=[N+]=[N-])cc2)cc1OC (relative stereo) [Compound 12, trans-4-(4-azidophenyl)-1-(3,4-dimethoxyphenyl)-3-phenylazetidin-2-one] | > 20 µM | > 20 µM | > 20 µM | – |
| COc1ccc([C@H]2C(=O)N(c3cc(OC)c(OC)c(OC)c3)[C@@H]2c2ccc(-n3cc(CSC(=S)N4CCCC4)nn3)cc2)cc1 (relative stereo) [Compound 31, (1-(4-(trans-3-(4-methoxyphenyl)-4-oxo-1-(3,4,5-trimethoxyphenyl)azetidin-2-yl)phenyl)-1H-1,2,3-triazol-4-yl)methylpyrrolidine-1-carbodithioate] | > 20 µM | > 20 µM | > 20 µM | – |
| trans-4-phenyl-3-(thiophen-2-yl)-1-(3,4,5-trimethoxyphenyl)azetidin-2-one [Compound 27] | – | – | – | IC50 (MGC-803 cells): > 20 µM; IC50 (MCF-7 cells): > 20 µM; IC50 (A549 cells): > 20 µM |
| COc1ccc(/C=C\c2cc(OC)c(OC)c(OC)c2)cc1OP(=O)(O)O [CA-4P, reference compound] | – | – | – | IC50 (MGC-803 cells): 0.015 ± 0.001 µM; IC50 (MCF-7 cells): 0.023 ± 0.002 µM; IC50 (A549 cells): 0.033 ± 0.007 µM; inhibitory rate (tumor weight) (MGC-803 xenograft; 21 days): 63.27%; average tumor weight (MGC-803 xenograft; 21 days (control 1.23 ± 0.28)): 0.45 ± 0.22 g; mean tumor volume at end of observation period (MGC-803 xenograft; 21 days (control 1665.98 ± 568.36)): 642.61 ± 449.92 mm^3 |
| COc1cc(N2C(=O)[C@@](c3ccccc3)(S(=O)(=O)C(F)(F)F)[C@H]2c2ccc(N=[N+]=[N-])cc2)cc(OC)c1OC [Compound 35, 4-(4-azidophenyl)-3-phenyl-3-((trifluoromethyl)sulfonyl)-1-(3,4,5-trimethoxyphenyl)azetidin-2-one] | > 20 µM | > 20 µM | > 20 µM | – |
| COc1cccc([C@H]2C(=O)N(c3cc(OC)c(OC)c(OC)c3)[C@@H]2c2ccc(N=[N+]=[N-])cc2)c1 (relative stereo) [Compound 19, trans-4-(4-azidophenyl)-3-(3-methoxyphenyl)-1-(3,4,5-trimethoxyphenyl)azetidin-2-one] | 1.4 ± 0.133 µM | 2.88 ± 0.489 µM | 18.1 ± 2.31 µM | activity loss against the growth of MGC-803 cells (MGC-803 cells; hydrogen atom (18) replaced with methoxy group (19)): over 8 fold |
| COc1ccc([C@H]2C(=O)N(c3cc(OC)c(OC)c(OC)c3)[C@@H]2c2ccc(N=[N+]=[N-])cc2)cc1 (relative stereo) [Compound 17, trans-4-(4-azidophenyl)-3-(4-methoxyphenyl)-1-(3,4,5-trimethoxyphenyl)azetidin-2-one] | 0.59 ± 0.014 µM | 1.07 ± 0.024 µM | 3.22 ± 0.349 µM | – |
| COc1ccc([C@H]2C(=O)N(c3ccc(OC)c(OC)c3)[C@@H]2c2ccc(N=[N+]=[N-])cc2)cc1 [Compound 13, trans-4-(4-azidophenyl)-1-(3,4-dimethoxyphenyl)-3-(4-methoxyphenyl)azetidin-2-one] | > 20 µM | > 20 µM | > 20 µM | – |

Now from value to compound, other results behind:

| IC50 (MGC-803 cells; Homo sapiens, MGC-803) | IC50 (MCF-7 cells; Homo sapiens, MCF7) | IC50 (A549 cells; Homo sapiens, A549) | Compound | also measured |
| --- | --- | --- | --- | --- |
| > 20 µM | > 20 µM | > 20 µM | COc1cc(N2C(=O)[C@@](c3ccccc3)(S(=O)(=O)C(F)(F)F)[C@H]2c2cccc(N=[N+]=[N-])c2)cc(OC)c1OC [Compound 36, 4-(3-azidophenyl)-3-phenyl-3-((trifluoromethyl)sulfonyl)-1-(3,4,5-trimethoxyphenyl)azetidin-2-one] | – |
| 0.84 ± 0.63 µM | 4 ± 0.922 µM | 5.76 ± 0.887 µM | COc1cc(N2C(=O)[C@H](c3ccc(F)cc3)[C@H]2c2cccc(N=[N+]=[N-])c2)cc(OC)c1OC (relative stereo) [Compound 24, trans-4-(3-azidophenyl)-3-(4-fluorophenyl)-1-(3,4,5-trimethoxyphenyl)azetidin-2-one] | – |
| > 20 µM | > 20 µM | > 20 µM | COc1ccc([C@H]2C(=O)N(c3ccc(OC)cc3OC)[C@@H]2c2cccc(N=[N+]=[N-])c2)cc1 (relative stereo) [Compound 21, trans-4-(3-azidophenyl)-1-(2,4-dimethoxyphenyl)-3-(4-methoxyphenyl)azetidin-2-one] | – |
| > 20 µM | > 20 µM | > 20 µM | COc1cc(N2C(=O)[C@@H](c3ccccc3)[C@@H]2c2ccc(-n3cc(COc4cccc([N+](=O)[O-])c4)nn3)cc2)cc(OC)c1OC (relative stereo) [Compound 29, trans-4-(4-(4-((3-nitrophenoxy)methyl)-1H-1,2,3-triazol-1-yl)phenyl)-3-phenyl-1-(3,4,5-trimethoxyphenyl)azetidin-2-one] | melting point: 142 to 145 °C |
| > 20 µM | > 20 µM | > 20 µM | COc1ccc([C@@H]2C(=O)N(c3cc(OC)c(OC)c(OC)c3)[C@H]2c2ccc(-n3cc(-c4ccccc4)nn3)cc2)cc1 (relative stereo) [Compound 30, trans-3-(4-methoxyphenyl)-4-(4-(4-phenyl-1H-1,2,3-triazol-1-yl)phenyl)-1-(3,4,5-trimethoxyphenyl)azetidin-2-one] | melting point: 90 to 91 °C |
| 1.4 ± 0.127 µM | 2.88 ± 0.494 µM | 18.1 ± 1.71 µM | COc1cccc([C@H]2C(=O)N(c3cc(OC)c(OC)c(OC)c3)[C@@H]2c2cccc(N=[N+]=[N-])c2)c1 (relative stereo) [Compound 23, trans-4-(3-azidophenyl)-3-(3-methoxyphenyl)-1-(3,4,5-trimethoxyphenyl)azetidin-2-one] | – |
| > 20 µM | > 20 µM | > 20 µM | CCN1CCN(C(=S)SCc2cn(-c3ccc([C@@H]4[C@@H](c5ccccc5)C(=O)N4c4cc(OC)c(OC)c(OC)c4)cc3)nn2)CC1 (relative stereo) [Compound 32, (1-(4-(trans-4-oxo-3-phenyl-1-(3,4,5-trimethoxyphenyl)azetidin-2-yl)phenyl)-1H-1,2,3-triazol-4-yl)methyl-4-ethylpiperazine-1-carbodithioate] | – |
| 0.171 ± 0.051 µM | 0.338 ± 0.004 µM | 1.74 ± 0.145 µM | COc1cc(N2C(=O)[C@H](c3ccccc3)[C@H]2c2ccc(N=[N+]=[N-])cc2)cc(OC)c1OC (relative stereo) [Compound 18, trans-4-(4-azidophenyl)-3-phenyl-1-(3,4,5-trimethoxyphenyl)azetidin-2-one] | melting point: 66 to 68 °C |
| > 20 µM | > 20 µM | > 20 µM | COc1ccc(N2C(=O)[C@@H](c3ccccc3)[C@@H]2c2ccc(N=[N+]=[N-])cc2)cc1 (relative stereo) [Compound 15, trans-4-(4-azidophenyl)-1-(4-methoxyphenyl)-3-phenylazetidin-2-one] | melting point: 114 to 116 °C |
| > 20 µM | > 20 µM | > 20 µM | COc1cccc([C@H]2C(=O)N(c3ccc(OC)c(OC)c3)[C@@H]2c2ccc(N=[N+]=[N-])cc2)c1 (relative stereo) [Compound 16, trans-4-(4-azidophenyl)-1-(3,4-dimethoxyphenyl)-3-(3-methoxyphenyl)azetidin-2-one] | – |
| > 20 µM | > 20 µM | > 20 µM | COc1ccc(N2C(=O)[C@H](c3ccc(F)cc3)[C@H]2c2cccc(N=[N+]=[N-])c2)c(OC)c1 (relative stereo) [Compound 22, trans-4-(3-azidophenyl)-1-(2,4-dimethoxyphenyl)-3-(4-fluorophenyl)azetidin-2-one] | – |

Source: publication PMC5630639 (Scientific Reports, 2017)
